The values that follow come from PMC6052345, “Functional Analysis of the Chemosensory Protein MsepCSP8 From the Oriental Armyworm Mythimna separata” (Frontiers in Physiology, 2018).

Where two headings read alike, the source gives them in different places.

As usually defined, the IC50 is the concentration needed to halve the response being measured. Broadly, the Ki is a measure of affinity in units of concentration, obtained from inhibition or displacement.

Assay [1] addresses MsepCSP8 (Mythimna separata, UniProt A0A1V1WC03). The assay can be described thus: Fluorescence competitive binding assay with 1-NPN as fluorescent probe. The settings on record: for IC50: displacement of 1-NPN; for Ki: calculated from IC50; for binding affinity to MsepCSP8 in words: discussion of Table 1, pH not stated. As for the experimental part: The expressed protein was obtained in soluble form in the supernatant, and purification was accomplished using a Ni affinity chromatography column (GE Healthcare, Uppsala, Sweden). Bound protein was eluted by digestion with recombinant bovine enterokinase at 26°C for 15 h to remove the His-tag. Expression and purification were verified by 15% sodium dodecyl sulfate-polyacrylamide gel electrophoresis (SDS-PAGE), and protein concentration was measured as described by [Cao et al. (2017)]. Dialysis of purified protein was carried out in 30 mM Tris-HCl buffer [Tris(hydroxymethyl)aminomethane] at pH 7.4 and pH 5.0 before fluorescence binding assays, and protein was stored at -80°C until use.
Fluorescence competitive binding assays were performed to determine the binding affinity of MsepCSP8 for 56 ligands using N-phenyl-1-naphthylamine (1-NPN) as a fluorescent probe. Stock solutions of ligands were prepared in spectrophotometric-grade methanol. […] Mixtures of 1-NPN and protein were excited at 337 nm wavelength, and emission spectra were recorded from 360 to 600 nm using a fluorescence spectrophotometer (RF-5301PC Shimadzu, Kyoto, Japan). Binding of selected ligands with MsepCSP8 (1:1 protein:ligand stoichiometry) was evaluated using 1-NPN as a fluorescent probe, with the final concentration of the product ranging from 0 to 20 μM. […] Three independent measurements were made for all experiments. The binding affinity (Ki) of MsepCSP8 for all tested ligands was calculated based on IC50 values as follows:
Ki=IC50/(1 + [1−NPN]/K1–NPN)
where [1-NPN] is the free concentration of 1-NPN, and K1-NPN is the dissociation constant of the complex of MsepCSP8 and 1-NPN.

Assay [2] has as its system Mythimna separata. Kind of assay: Y-tube olfactometer bioassay (before RNAi). It is filed as in vivo. The settings on record: for behavioral response in words: male and female moths; for behavioral response (attraction) of females: 3-day-old female moths; for behavioral response (attraction) of females / behavioral response (attraction) of males: 10 μl volatile vs liquid paraffin; for behavioral response (attraction) of males: 3-day-old male moths. An excerpt:
Mythimna separata behavioral responses were examined by olfactometer bioassays ([Cao et al., 2015]) performed in a glass Y-tube (base = 4.0 cm diameter by 25 cm length, arms = 3.0 cm diameter by 26 cm length) using 10 different volatile compounds (Sigma-Aldrich).
Air entering the tube was passed through activated charcoal for filtration and humidified using deionised water. Filtered air was split between two chambers; one chamber containing liquid paraffin (used as control) and the other containing the test volatile. Each chamber was connected to one arm of the Y-tube. Airflow was kept constant at 6.0 l min^-1 throughout the experiment using an inline flow meter (Gilmont Instr., Barnant Co., Barrington, IL, United States). Orange light was used for this experiment. The whole experiment was conducted in a dark room, and the relative humidity and temperature were maintained at 70 ± 5% and 25 ± 1°C, respectively. A 10 μl of volatile compound was applied to 10 mm × 10 mm filter papers (Whatman No. 1) that was placed in the chamber connected to one arm of the Y-tube. A separate Y-tube was used for male and female moths.
To perform bioassays, a 3-day-old moth, either male or female, was released in the base of the Y-tube. Each insect was given 10 min to respond to the treatment, and the number of moths showing attraction, repulsion or no response was counted. Approximately 30 min before onset of the trial, male and female adults were placed into separate glass tubes (50 ml) and covered with a cotton plug to avoid exposure to tested volatiles. In total, 60 adults (30 male and 30 female) were tested per volatile compound, and χ^2 tests were applied to evaluate the number of M. separata individuals attracted to or repelled by volatiles.

In assay [3] the test system is Mythimna separata. The assay can be described thus: Y-tube olfactometer bioassay after dsMsepCSP8 injection. It is filed as in vivo. The settings on record: males and females, 3 days post-eclosion. As for the experimental part:
The dsRNA (500 nl of 10 ng nl^-1) was injected into 3rd and 4th abdominal segment of 7-day old pupae using a microinjector (World Precision Instruments Inc., Sarasota, FL, United States) under a microscope. After injection, pupae were kept in petri dishes until eclosion at 25 ± 1°C and 70 ± 5% relative humidity. Three treatments were set up for RNAi consisting of non-injected (controls), dsGFP-injected and dsRNA-injected (dsMsepCSP8) groups. After eclosion, adults from each treatment were kept in separate containers. Three individuals of each sex from all three treatments were taken at 1, 2, 3, 4, and 5 days post-eclosion for RNAi analysis. RT-qPCR was performed using the method described above.
Y-tube bioassays were performed both before and after RNAi application to confirm the MsepCSP8 gene silencing effect. Three treatments consisting of dsGFP-injected, dsRNA-injected (dsMsepCSP8), and controls were tested on both 3-day old male and female moths.

Sequence of MsepCSP8 (A0A1V1WC03 entry or part of it): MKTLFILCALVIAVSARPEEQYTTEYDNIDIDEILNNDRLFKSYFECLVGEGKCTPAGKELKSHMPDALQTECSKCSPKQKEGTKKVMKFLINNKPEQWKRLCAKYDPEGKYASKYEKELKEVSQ

For the molecule `CC1=CCC(O)(C(C)C)CC1` (single isomer, unassigned; (-)) [(–)-Terpinen-4-ol], the IC50 came to 9.46 µM in assay [1] (IC50, pH 5.0) and 13.9 µM in assay [1] (IC50, pH 7.4). For the same molecule, the Ki was 7.06 µM in assay [1] (Ki, pH 5.0) and 9.74 µM in assay [1] (Ki, pH 7.4). Further, the “binding affinity to MsepCSP8 in words” value in assay [1] is on record as “high binding affinities”. Further, the “behavioral response in words” value in assay [2] is listed as “repelled”.
Turning to `C=CC(O)CC` (stereo not shown) [1-Penten-3-ol], the IC50 worked out at 22.2 µM in assay [1] (IC50, pH 5.0) and 9.27 µM in assay [1] (IC50, pH 7.4). Besides, the inhibition constant Ki in assay [1] (Ki, pH 5.0) is 16.6 µM; in assay [1] (Ki, pH 7.4) it was 6.5 µM. In assay [1], the “binding affinity to MsepCSP8 in words” value is on record as “bound strongly”. Besides, the “behavioral response in words” value in assay [2] is recorded as “distinct preference”.
On to `CCCCCCCCCCCC(C)=O` [2-Tridecanone], for which the IC50 was 7.75 µM in assay [1] (IC50, pH 5.0) and 9.07 µM in assay [1] (IC50, pH 7.4). In addition, the Ki is 5.78 µM in assay [1] (Ki, pH 5.0) and 6.37 µM in assay [1] (Ki, pH 7.4). The “binding affinity to MsepCSP8 in words” value in assay [1] is given as “high affinity”. Also, the “behavioral response in words” value in assay [2] is listed as “non-significant attraction”.
With `OC1CCCCC1` [Cyclohexanol], the “behavioral response in words” value in assay [2] is “distinct preference”.
On to `CCCCCC=O` [Hexanal], for which, in assay [2], the “behavioral response (attraction) of females” value is 73.33% and the “behavioral response (attraction) of males” value amounted to 70%. In addition, the “behavioral responses of adults after dsMsepCSP8 injection” value in assay [3] is reported as “not significantly affect”.
As to `CCCCCCCC=O` [Octanal], the IC50 in assay [1] (IC50, pH 5.0) amounted to 13.7 µM; in assay [1] (IC50, pH 7.4), 9.87 µM. Besides, the Ki in assay [1] (Ki, pH 5.0) is 10.2 µM; in assay [1] (Ki, pH 7.4), 6.93 µM. Further, the “binding affinity to MsepCSP8 in words” value in assay [1] is “high affinities”. Moreover, the “behavioral response in words” value in assay [2] is given as “non-significant response”.
Take `CC1=CCC(=C(C)C)CC1` [Terpinolene]: the half-maximal inhibitory concentration (IC50) in assay [1] (IC50, pH 5.0) is 27 µM; in assay [1] (IC50, pH 7.4), 8.82 µM. Also, the Ki in assay [1] (Ki, pH 5.0) was 20.1 µM; in assay [1] (Ki, pH 7.4), 6.19 µM. Besides, the “binding affinity to MsepCSP8 in words” value in assay [1] is “high binding affinities”. In addition, the “behavioral response (attraction) of females” value in assay [2] was found to be 80%. For the same molecule, in assay [2], the “behavioral response (attraction) of males” value worked out at 90%. Further, the “behavioral responses of adults after dsMsepCSP8 injection” value in assay [3] was “not significantly affect”.
Consider `CCC/C=C/C=O` [Trans-2-hexenal], for which the concentration for half-maximal inhibition (IC50) stood at 8.85 µM in assay [1] (IC50, pH 5.0) and 12.5 µM in assay [1] (IC50, pH 7.4). For the same molecule, the Ki in assay [1] (Ki, pH 5.0) is 6.6 µM; in assay [1] (Ki, pH 7.4), 8.8 µM. For the same molecule, in assay [1], the “binding affinity to MsepCSP8 in words” value was “high affinities”. The “behavioral response in words” value in assay [2] is listed as “non-significant response”.
For the molecule `CC1=CC=C(C(C)C)CC1` [α-Terpinene], in assay [2], the “behavioral response (attraction) of females” value is listed as 70% and the “behavioral response (attraction) of males” value worked out at 66%.
As for `CC(=O)/C=C/C1=C(C)CCCC1(C)C` [β-Lonone], the IC50 amounted to 22.8 µM in assay [1] (IC50, pH 5.0) and 10.3 µM in assay [1] (IC50, pH 7.4). Also, the Ki in assay [1] (Ki, pH 5.0) is 17 µM; in assay [1] (Ki, pH 7.4), 7.22 µM. Also, the “binding affinity to MsepCSP8 in words” value in assay [1] is recorded as “high affinity”.
Take (+)-Fenchone: the Ki in assay [1] (pH 5.0, read-out: Ki) was 14.9 µM; in assay [1] (pH 7.4, read-out: Ki), 20.8 µM. For the same molecule, the IC50 in assay [1] (pH 5.0, read-out: IC50) was found to be 20 µM; in assay [1] (pH 7.4, read-out: IC50), 29.7 µM.
In the same order, the values of (–)-Isolongifolene are 46 µM, 17.3 µM, 61.6 µM and 24.6 µM.
In the case of (–)-Limonene, the Ki in assay [1] (pH 5.0, read-out: Ki) was 11.2 µM; in assay [1] (pH 7.4, read-out: Ki) it was 28.4 µM. For the same molecule, the 50% inhibitory concentration (IC50) in assay [1] (pH 5.0, read-out: IC50) came to 15.1 µM; in assay [1] (pH 7.4, read-out: IC50), 40.4 µM.
On to Farnesene, for which the IC50 in assay [1] (pH 5.0, read-out: IC50) was 20.2 µM; in assay [1] (pH 7.4, read-out: IC50) it was 18.6 µM. Further, the Ki in assay [1] (pH 7.4, read-out: Ki) is 13.1 µM.
